Where two headings read alike, the source gives them in different places. Marks after values point to notes of the source that are not given here.
Tests used:
[1] = Human microsomal stability; format: in vitro ADME; settings: human, human liver microsomes; read-out: Metabolic stability (t1/2) human
Protocol: (§1) The in vitro metabolic stabilities of selected compounds were performed using human and rat liver microsomes in triplicate as described previously.

Rat microsomal stability = format: in vitro ADME; settings: rat, rat liver microsomes; read-out: Metabolic stability (t1/2) rat
Protocol: as §1

[2] = pH 7.4; ref [35], [38], [39]; cited from earlier work
[3] = ref [43], cited from earlier work
Na+, K+-ATPase = assay: In vitro Na+, K+-ATPase activity; format: biochemical
[4] = Tissue distribution of vonoprazan and its metabolites in rats (previous studies); format: in vivo, rat; settings: 1 h after oral 2.0 mg/kg, calculated from data of a previous study, ref [40]
[5] = cited from earlier work; for Drug concentration, Plasma: 2 mg/kg
[6] = tested on: 2-DG-stimulated gastric acid secretion; assay: In vivo inhibition of 2DG-stimulated acid secretion in anesthetized rats; design: species or system rat; settings: i.g. 2 mg/kg
Protocol: (§2) 60 SPF SD rats weighing 180-220 g were randomly divided into […]: sham, model, SH-337 (2 mg/kg and 4 mg/kg), vonoprazan (2 mg/kg), males and females are equally divided. Fasting for 24 hours, model and sham groups were treated with deionized water. Drugs and vehicle were given through intragastric administration to rats before anesthesia. 1 h after administration, pylorus was ligated. 5 min later, histamine 2HCl (30 mg/10 mL/kg) was injected subcutaneously. At 3 h after histamine administration, the rats were killed by CO2 asphyxiation. The gastric contents were collected in a 10 mL centrifuge tube after removing their stomachs. Centrifuge at 3000 g for 10 min, and then, determine the total acid output during a 3 h period by 0.1 M NaOH [52, 53]. %Inhibition = (average of modelacid–drugacid)/average of modelacid × 100%.
The 2DG-stimulated acid secretion in anesthetized rats was measured as described as for histamine-stimulated acid secretion, with the exception that 5 min after pylorus ligation, 2-DG (200 mg/10 mL/kg) was injected subcutaneously.

[7] = tested on: histamine-stimulated gastric acid secretion; assay: In vivo inhibition of histamine-stimulated acid secretion in anesthetized rats; design: species or system rat
Protocol: as §2

[8] = biological target: T1, rabbit gastric H+, K+-ATPase (Oryctolagus cuniculus, UniProt P27112); assay: In vitro enzymatic activity assay (inorganic phosphate from ATP hydrolysis); format: biochemical
T1 construct: using rabbit gastric H^+, K^+-ATPase; from tissue; host or cells: rabbit stomach (gastric preparation; the method of preparation is not described)
T1 sequence (P27112 whole entry): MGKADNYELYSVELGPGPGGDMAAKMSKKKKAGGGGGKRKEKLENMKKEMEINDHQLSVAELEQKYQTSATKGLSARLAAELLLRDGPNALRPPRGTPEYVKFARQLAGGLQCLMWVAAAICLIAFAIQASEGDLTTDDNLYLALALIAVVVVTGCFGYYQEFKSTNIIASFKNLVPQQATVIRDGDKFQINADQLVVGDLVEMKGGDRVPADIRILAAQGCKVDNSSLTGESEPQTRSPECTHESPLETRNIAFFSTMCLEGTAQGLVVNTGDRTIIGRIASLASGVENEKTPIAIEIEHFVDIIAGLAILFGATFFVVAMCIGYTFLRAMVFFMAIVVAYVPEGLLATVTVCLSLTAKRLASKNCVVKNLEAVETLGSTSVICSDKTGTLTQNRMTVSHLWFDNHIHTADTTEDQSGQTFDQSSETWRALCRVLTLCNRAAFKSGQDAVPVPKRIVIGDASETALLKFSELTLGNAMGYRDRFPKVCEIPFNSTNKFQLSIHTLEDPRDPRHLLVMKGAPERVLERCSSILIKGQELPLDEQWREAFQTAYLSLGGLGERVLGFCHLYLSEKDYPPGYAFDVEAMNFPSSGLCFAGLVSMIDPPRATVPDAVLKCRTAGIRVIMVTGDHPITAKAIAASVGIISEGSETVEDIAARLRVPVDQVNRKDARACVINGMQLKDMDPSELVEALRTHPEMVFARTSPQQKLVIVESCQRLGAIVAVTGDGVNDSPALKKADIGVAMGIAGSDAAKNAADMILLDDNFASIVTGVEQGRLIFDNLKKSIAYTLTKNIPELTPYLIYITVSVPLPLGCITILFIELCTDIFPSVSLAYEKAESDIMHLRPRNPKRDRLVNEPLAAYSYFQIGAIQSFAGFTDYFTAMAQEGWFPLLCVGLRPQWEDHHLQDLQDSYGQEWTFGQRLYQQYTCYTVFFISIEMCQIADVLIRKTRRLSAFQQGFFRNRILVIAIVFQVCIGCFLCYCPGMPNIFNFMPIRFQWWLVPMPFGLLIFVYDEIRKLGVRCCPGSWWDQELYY
T1 sequence (P18597 whole entry partner): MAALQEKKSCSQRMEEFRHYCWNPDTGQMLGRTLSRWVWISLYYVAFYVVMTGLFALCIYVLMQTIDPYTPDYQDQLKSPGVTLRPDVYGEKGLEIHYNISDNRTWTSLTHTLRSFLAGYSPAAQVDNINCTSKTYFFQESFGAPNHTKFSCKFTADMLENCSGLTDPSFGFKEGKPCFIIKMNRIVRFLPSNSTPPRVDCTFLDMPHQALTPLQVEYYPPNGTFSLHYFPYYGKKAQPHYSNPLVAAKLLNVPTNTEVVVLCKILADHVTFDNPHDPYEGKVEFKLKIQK
Protocol: The in vitro enzymatic activity was calculated by measuring the inorganic phosphate produced by the hydrolysis of ATP using rabbit gastric H^+, K^+-ATPase. 0.25 μg enzyme was preincubated at 37°C for 30 min in Tris-HCl buffer (2.0 mL, 50 mM, pH 6.5) containing 5 mM MgCl2, 10 μM valinomycin, 0 or 20 mM KCl, and different concentrations of SH-337 and vonoprazan. The reaction was initiated by adding 5 μL of 5 mM ATP 2Na, and the preparation was incubated for 30 min at 37°C and halted by the addition of 100 μL of malachite green reagent (0.12% malachite green, 7.5% ammonium molybdate, and 11% tween 20 were mixed in a volume ratio of 100 : 25 : 2). H^+, K^+-ATPase activity was calculated after subtracting the enzyme activity in the absence of KCl.

[9] = AUC0–24, rats, i.g. 2 mg/kg vonoprazan, ref [43]
[10] = rats, 1 h after oral administration of 2.0 mg/kg, ref [40]
[11] = rats, i.g. 2 mg/kg vonoprazan, ref [43]

CNCc1cc(-c2ccccc2F)n(S(=O)(=O)c2cccnc2)c1.O=C(O)/C=C/C(=O)O [Vonoprazan, 1-[5-(2-fluorophenyl)-1-(pyridin-3-ylsulfonyl)-1H-pyrrol-3-yl]-N-methylmethanamine fumarate]
half-life [1]: 5.65 h
half-life (Rat microsomal stability): 0.908 h
log D7.4 [2]: 0.4^a
ALT and total cholesterol ([3]; 100 mg/kg dose of vonoprazan, males): high ALT and total cholesterol were observed in males
no observed adverse effect level (NOAEL) [3]: 30 mg/kg
IC50 (Na+, K+-ATPase): 47.1 µM
Fold selectivity (Na+, K+-ATPase; Na+, K+-ATPase over H+, K+-ATPase): 719.4 fold
C Stomach/CPlasma ([4]; 2 mg/kg): 87.0^e
Kp at 1 h ([4]; rat, stomach/plasma, read-out: C Stomach/CPlasma): 87
C Stomach/CLiver (stomach-liver distribution ratio) [5, 9]: 3.2
C Stomach/CPlasma (stomach-plasma distribution ratio) [5, 9]: 165.0
C Stomach/CPlasma (stomach-plasma distribution ratio) ([5]; AUC0–24, rats, i.g. 2 mg/kg vonoprazan, ref [43], listed as vonoprazan): 165
Drug concentration, Plasma [5, 10]: 11.0^c ng/mL
Drug concentration, Stomach [5, 10]: 957.0^c ng/mL
Drug concentration, Plasma ([5]; rats, 1 h after oral administration of 2.0 mg/kg, ref [40], listed as vonoprazan): 11 ng/mL
AUC0–24, Liver [5, 11]: 4039.0 ng equiv. h/mL or g
AUC0–24, Plasma [5, 11]: 79.0 ng equiv. h/mL or g
AUC0–24, Stomach [5, 11]: 13085.0 ng equiv. h/mL or g
Inhibition (%), 2-DG-stimulated model [6]: 80%
Total acid output, 2-DG-stimulated model [6]: 0.62 ± 0.55^∗∗ 10^−4 mol
In vivo efficacy (% inhibition) ([7]; histamine-induced acid secretion in rats, 2 mg/kg, i.g. (Table 2)): 78%
Total acid output, histamine-stimulated model ([7]; rats, i.g. 2 mg/kg): 0.29 ± 0.43^∗∗ 10^−4 mol
IC50 [8]: 0.0655 µM
